Activity calls are given as the source filed them.
Key:
[1] = P. falciparum Dd2 growth inhibitors, dose response, SYBR Green, cherry-picked samples (AID 1159567); format: functional, cell-based
[2] = target: Heat shock protein HSP 90-alpha (Homo sapiens, UniProt P07900); format: functional, organism-based
[3] = HEp-2 cell cytotoxicity, dose response, cytotoxicity control for RSV inhibitor project, HTS (AID 2410); format: functional; conditions: human respiratory syncytial virus
[4] = target: T1, High affinity choline transporter 1 (Homo sapiens, UniProt Q9GZV3); assay: CHT inhibitors, dose response, cell-based, 5-point CRC, membrane potential dye (AID 504840); format: functional
T1 sequence (Q9GZV3 whole entry): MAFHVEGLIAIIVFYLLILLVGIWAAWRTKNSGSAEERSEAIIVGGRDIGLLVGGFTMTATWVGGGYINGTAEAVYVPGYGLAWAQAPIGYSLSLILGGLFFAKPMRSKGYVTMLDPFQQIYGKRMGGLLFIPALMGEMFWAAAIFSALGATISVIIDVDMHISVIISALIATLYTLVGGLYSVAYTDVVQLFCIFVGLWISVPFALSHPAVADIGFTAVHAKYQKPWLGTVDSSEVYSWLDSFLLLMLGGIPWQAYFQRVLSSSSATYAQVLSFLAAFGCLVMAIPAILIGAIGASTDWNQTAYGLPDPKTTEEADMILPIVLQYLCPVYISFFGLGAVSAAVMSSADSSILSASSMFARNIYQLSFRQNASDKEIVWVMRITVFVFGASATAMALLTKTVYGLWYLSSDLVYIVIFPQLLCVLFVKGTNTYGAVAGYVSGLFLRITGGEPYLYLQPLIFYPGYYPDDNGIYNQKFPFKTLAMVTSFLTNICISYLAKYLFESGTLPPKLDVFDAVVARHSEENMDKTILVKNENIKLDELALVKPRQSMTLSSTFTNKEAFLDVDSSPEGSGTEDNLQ

[5] = A549 cell cytotoxicity, dose response, cytotoxicity control, plate reader, cherry-pick, antagonist series (AID 743412); format: functional, cell-based
[6] = HEK293 cell cytotoxicity, dose response, cytotoxicity control, plate reader, cherry-picked samples (AID 743446); format: functional, cell-based
[7] = target: Large T antigen (Simian virus 40, UniProt P03070); format: functional, Betapolyomavirus macacae;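 note: Confirmatory-stage PubChem screen for compounds that inhibit SV40 T antigen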
[8] = NIH-3T3 fibroblast cytotoxicity, dose response, cytotoxicity control, cell-based, fluorescence, Alamar Blue, secondary assay (AID 2327); format: functional;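 note: NIH-3T3 mouse fibroblasts cultured with fluconazole at 8 µg/mL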
[9] = C. albicans growth with fluconazole, confirmation, fluorescence, retest (AID 2467); format: functional, cell-based
[10] = microbe, parasite or virus in culture; format: functional; conditions: Mycobacterium tuberculosis
[11] = THP-1 cell cytotoxicity, dose response, cytotoxicity control for non-replicating M. tuberculosis project (AID 489025); format: functional
[12] = Vero E6 cell cytotoxicity, dose response, cytotoxicity control for non-replicating M. tuberculosis project, secondary assay (AID 492998); format: functional, VeroE6; conditions: Vero C1008
[13] = cells; format: functional
[14] = system: H9c2; assay: cells; format: functional, cell-based; conditions: Rattus norvegicus, H9c2, Myocardium;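 note: confirmatory concentration-response retest of ultra-high-throughput screening hits for modulation of myocardial damage; cell death induced by hydrogen peroxide oxidative stress; compound pretreatment for 60 min then peroxide exposure for 2 h; potency is for protecting the cells against peroxide damage rather than for killing them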
[15] = system: P388/ADR; assay: cells; format: functional; conditions: Mus musculus
[16] = system: SN12K1; assay: cells; format: functional; conditions: Homo sapiens
[17] = system: P388; assay: cells; format: functional; conditions: Mus musculus
[18] = Luminescence Cell-Based Dose Response HTS to Identify Activators of Luciferase Translation or Activity in H4 […] Cells. [Related pubchem assays: 1829 (Project Summary), 1814 (Primary HTS)]; format: functional
[19] = system: H4; assay: Luminescence Cell-Based Dose Response HTS to Identify Activators of 5'UTR Stem-Loop Driven Prion Protein mRNA Translation in H4 Neuroglioblastoma Cells. [Related pubchem assays: 1829 (Project Summary), 1814 (Primary HTS)]; format: functional; conditions: Homo sapiens
[20] = target: Induced myeloid leukemia cell differentiation protein Mcl-1 (Homo sapiens, UniProt Q07820); format: functional
Chain of Induced myeloid leukemia cell differentiation protein Mcl-1 (Q07820 whole entry): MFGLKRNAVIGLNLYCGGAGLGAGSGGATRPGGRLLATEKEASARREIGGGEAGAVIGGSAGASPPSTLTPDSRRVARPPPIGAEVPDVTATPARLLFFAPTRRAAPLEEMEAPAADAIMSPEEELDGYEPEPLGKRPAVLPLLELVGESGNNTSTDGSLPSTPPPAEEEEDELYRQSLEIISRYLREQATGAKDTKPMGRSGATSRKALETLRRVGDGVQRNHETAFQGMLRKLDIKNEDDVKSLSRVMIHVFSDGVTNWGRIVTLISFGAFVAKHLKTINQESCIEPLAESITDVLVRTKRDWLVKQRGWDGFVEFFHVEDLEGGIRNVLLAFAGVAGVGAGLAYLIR

Chain of Large T antigen (P03070 whole entry): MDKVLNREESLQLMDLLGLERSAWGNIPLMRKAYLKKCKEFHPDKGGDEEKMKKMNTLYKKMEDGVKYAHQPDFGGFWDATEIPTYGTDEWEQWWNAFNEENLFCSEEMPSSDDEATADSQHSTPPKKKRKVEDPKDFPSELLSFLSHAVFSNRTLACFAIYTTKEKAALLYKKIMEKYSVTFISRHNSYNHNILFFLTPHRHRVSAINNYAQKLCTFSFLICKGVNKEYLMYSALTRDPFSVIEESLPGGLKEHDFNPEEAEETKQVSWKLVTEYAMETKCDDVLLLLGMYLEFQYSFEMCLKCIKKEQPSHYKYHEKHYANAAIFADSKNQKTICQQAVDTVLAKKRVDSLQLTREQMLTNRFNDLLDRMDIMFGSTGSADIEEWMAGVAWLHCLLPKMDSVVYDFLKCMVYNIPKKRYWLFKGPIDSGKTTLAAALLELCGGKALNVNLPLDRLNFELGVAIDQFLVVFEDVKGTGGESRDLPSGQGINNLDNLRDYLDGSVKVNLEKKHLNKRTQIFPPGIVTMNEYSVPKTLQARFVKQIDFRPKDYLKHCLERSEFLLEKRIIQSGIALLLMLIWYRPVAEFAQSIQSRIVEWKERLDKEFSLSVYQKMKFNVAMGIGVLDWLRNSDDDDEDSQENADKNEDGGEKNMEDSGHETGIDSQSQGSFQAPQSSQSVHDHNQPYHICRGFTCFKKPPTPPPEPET

Structure (SMILES): Cc1ccc(-c2ccccc2[C@H]2[C@@H](C#N)N(C(=O)NC3CCCC3)[C@H]2CO)cc1
- AC50 [1]: 7.19 µM (active)

Structure (SMILES): O=C(Nc1ccccc1)Oc1cccc2cccnc12
- AC50 [2]: 3.44 µM (active)

Structure (SMILES): O=C(Nc1ccccc1Br)C1CCCN1S(=O)(=O)c1cccc2nsnc12 (stereo not drawn)
- CC50 [3]: 33.1 µM (active)
- IC50 [4]: 13.8 µM (active)

Structure (SMILES): Cn1nnnc1Sc1ncnc2scc(-c3ccccc3C(F)(F)F)c12
- CC50 [3]: 7.66 µM (active)
- AC50 [5]: 20.7 µM (active)
- AC50 [6]: 27.9 µM (active)

Structure (SMILES): COc1cc(/C=N/NC(=O)CCn2nc(C)cc2C)ccc1O
- IC50 [7]: 15.6 µM (active)

Structure (SMILES): Cc1noc2ncnc(Sc3ccc(Cl)cc3)c12
- EC50 [8]: > 160 µM (inconclusive)
- EC50 [9]: > 38 µM (not active)
- CC50 [10]: 27.1 µM (active)
- CC50 [11]: 21.3 µM (active)
- CC50 [12]: > 20 µM (active)
- IC50 [13]: 8.82 µM (active)

Structure (SMILES): Cn1c(=O)[nH]c(=O)c2c1nc(N(CCO)Cc1ccccc1)n2CCCc1ccccc1
- IC50 [14]: 13.8 µM (active)

Structure (SMILES): OCC#CCNCl
- GI50 [15]: > 46 µM (inactive)
- GI50 [16]: > 100 µM (inactive)
- GI50 [17]: 16.1 µM (inactive)

Structure (SMILES): CCN1CCN(Cc2ccccc2NC(=O)Nc2ccc(C)cc2)CC1
- EC50 [18]: > 120 µM (not active)
- EC50 [19]: 7.09 µM (active)

Structure (SMILES): CCC(C)C1NC(=O)CNC(=O)C2Cc3c([nH]c4cc(O)ccc34)[S+]([O-])CC(NC(=O)CNC1=O)C(=O)NC(CC(=O)O)C(=O)N1CC(O)CC1C(=O)NC(C(C)C(O)CO)C(=O)N2 (stereo not drawn)
- GI50 [15]: 2.77 µM (inactive)
- GI50 [16]: 2.32 µM (inactive)
- GI50 [17]: 2.47 µM (inactive)

Structure (SMILES): O=C(/C=C/c1ccccc1Cl)c1ccc(O)cc1
- AC50 [2]: 4.46 µM (active)

Structure (SMILES): COc1ccnc(Oc2ccccc2)c1C(=O)N=CNOCc1ccc(F)cc1Cl
- IC50 [14]: > 79 µM (inactive)

Structure (SMILES): CN(C)CCNC(=O)c1cccc2[nH]c(-c3ccccn3)nc12
- GI50 [15]: 21.3 µM (inactive)
- GI50 [16]: 25.2 µM (inactive)
- GI50 [17]: 14.5 µM (inactive)

Structure (SMILES): Cc1sc2nc(CSCC(=O)N(C)CC(=O)Nc3ccc(F)cc3)nc(O)c2c1C
- IC50 [14]: 7.7 µM (active)

Structure (SMILES): COc1ccc(CCNC(=O)CN(c2ccc(OC)c(OC)c2)S(C)(=O)=O)cc1
- IC50 [20]: 26 µM (not active)

Structure (SMILES): CN(CCO)/N=N/c1n[nH]cc1C(N)=O
- GI50 [15]: > 100 µM (inactive)
- GI50 [16]: > 100 µM (inactive)
- GI50 [17]: > 100 µM (inactive)

Structure (SMILES): COc1ccc(OC)c(/C=C2\SC(=S)N(NS(=O)(=O)c3ccccc3)C2=O)c1
- IC50 [4]: 8.71 µM (active)

Structure (SMILES): N=C(Cc1ccc(Cl)cc1Cl)NOC(=O)c1ccc(Br)o1
- AC50 [2]: 3.11 µM (active)

Structure (SMILES): COc1ccc(CC(N)=O)cc1OC
- GI50 [15]: > 1250 µM (inactive)
- GI50 [16]: > 1250 µM (inactive)
- GI50 [17]: > 1250 µM (inactive)
